Measured values as given in patent publication US20170000133A1, “BENZOXABOROLE FUNGICIDES” (SYNGENTA PARTICIPATIONS AG, priority 2013, published 2017).

tested on: Plasmopara viticola; assay: whole plant or invertebrate; assay type: in vivo; details: foliar, read-out: disease control

Q: Which pest or weed control at 200 ppm does the source give for `O=C(OCc1ccsc1)c1cc2c(cc1Cl)COB2O` [Compound 439] here?
A: ≥ 80%

tested on: Pythium ultimum; assay: Pythium ultimum / liquid culture (seedling damping off); assay type: cell-based; details: Globisporangium ultimum; 200 ppm; potato dextrose broth, 24° C., 2-3 days after application; read-out: disease control (inhibition of growth determined photometrically)

Q: For `CCCCSCCOC(=O)c1cc2c(cc1Cl)COB2O` [Compound 198], which inhibition at 200 ppm is on record?
A: ≥ 80%

Q: Which inhibition at 200 ppm does the source give for `C=C(C)COC(=O)c1cc2c(cc1Cl)COB2O` [Compound 214] here?
A: ≥ 80%

Q: Which inhibition at 200 ppm does the source give for `COc1ccc(OCCOC(=O)c2cc3c(cc2Cl)COB3O)cc1` [Compound 218] here?
A: ≥ 80%

Q: `O=C(OCc1cccc(F)c1)c1cc2c(cc1Cl)COB2O` [Compound 241] was tested. Which inhibition at 200 ppm did it give?
A: ≥ 80%

Q: With `O=C(OC1CSC1)c1ccc2c(c1)B(O)OC2` [Compound 362] as the compound, how does the inhibition at 200 ppm read?
A: ≥ 80%

Q: For `CCCCCCCOC(=O)c1cc2c(cc1F)COB2O` [Compound 378], which inhibition at 200 ppm is on record?
A: ≥ 80%

Q: Which inhibition at 200 ppm does the source give for `O=C(OCc1ccsc1)c1cc2c(cc1Cl)COB2O` [Compound 439] here?
A: ≥ 80%

tested on: Glomerella lagenarium (Colletotrichum lagenarium); assay: Glomerella lagenarium (Colletotrichum lagenarium) / liquid culture (anthracnose); assay type: cell-based; details: Colletotrichum orbiculare, PDB potato dextrose broth, 24° C., 3-4 days after application, read-out: disease control (inhibition of growth measured photometrically)
Protocol: (§1) 11. Glomerella lagenarium (Colletotrichum lagenarium)/Liquid Culture (Anthracnose): Conidia of the fungus from cryogenic storage were directly mixed into nutrient broth (PDB potato dextrose broth). After placing a DMSO solution of test compound into a 96-well microtiter plate at an application rate of 200 ppm, the nutrient broth containing the fungal spores was added. The test plates were incubated at 24° C. and the inhibition of growth was measured photometrically 3-4 days after application.

Q: With `CCCCSCCOC(=O)c1cc2c(cc1Cl)COB2O` [Compound 198] as the compound, how does the inhibition at 200 ppm read?
A: ≥ 80%

Q: For `C=C(C)COC(=O)c1cc2c(cc1Cl)COB2O` [Compound 214], which inhibition at 200 ppm is on record?
A: ≥ 80%

Q: For `COc1ccc(OCCOC(=O)c2cc3c(cc2Cl)COB3O)cc1` [Compound 218], which inhibition at 200 ppm is on record?
A: ≥ 80%

Q: Which inhibition at 200 ppm does the source give for `O=C(OCc1cccc(F)c1)c1cc2c(cc1Cl)COB2O` [Compound 241] here?
A: ≥ 80%

Q: With `CCCCCCCOC(=O)c1cc2c(cc1F)COB2O` [Compound 378] as the compound, how does the inhibition at 200 ppm read?
A: ≥ 80%

Q: For `O=C(OCc1ccsc1)c1cc2c(cc1Cl)COB2O` [Compound 439], which inhibition at 200 ppm is on record?
A: ≥ 80%

tested on: Mycosphaerella arachidis (Cercospora arachidicola); assay: Mycosphaerella arachidis (Cercospora arachidicola) / liquid culture (early leaf spot); assay type: cell-based; details: PDB potato dextrose broth, 24° C., 4-5 days after application, read-out: disease control (inhibition of growth determined photometrically)
Protocol: as §1, with “12. Mycosphaerella arachidis (Cercospora arachidicola)/Liquid” for “11. Glomerella lagenarium (Colletotrichum lagenarium)/Liquid”, “(Early Leaf Spot):” for “(Anthracnose):”, “determined” for “measured”, “4-5” for “3-4”

Q: With `CCCCSCCOC(=O)c1cc2c(cc1Cl)COB2O` [Compound 198] as the compound, how does the inhibition at 200 ppm read?
A: ≥ 80%

Q: `C=C(C)COC(=O)c1cc2c(cc1Cl)COB2O` [Compound 214] was tested. Which inhibition at 200 ppm did it give?
A: ≥ 80%

Q: How did the inhibition at 200 ppm turn out when `COc1ccc(OCCOC(=O)c2cc3c(cc2Cl)COB3O)cc1` [Compound 218] was run?
A: ≥ 80%

Q: With `O=C(OCc1cccc(F)c1)c1cc2c(cc1Cl)COB2O` [Compound 241] as the compound, how does the inhibition at 200 ppm read?
A: ≥ 80%

Q: For `O=C(OC1CSC1)c1ccc2c(c1)B(O)OC2` [Compound 362], which inhibition at 200 ppm is on record?
A: ≥ 80%

Q: How did the inhibition at 200 ppm turn out when `CCCCCCCOC(=O)c1cc2c(cc1F)COB2O` [Compound 378] was run?
A: ≥ 80%

Q: `O=C(OCc1ccsc1)c1cc2c(cc1Cl)COB2O` [Compound 439] was tested. Which inhibition at 200 ppm did it give?
A: ≥ 80%

tested on: Mycosphaerella graminicola (Septoria tritici); assay: Mycosphaerella graminicola (Septoria tritici) / liquid culture (Septoria blotch); assay type: cell-based; details: Zymoseptoria tritici, PDB potato dextrose broth, 24° C., 4-5 days after application, read-out: disease control (inhibition of growth determined photometrically)
Outline: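 Conidia from cryostorage were suspended in potato dextrose broth and added to test compound in DMSO at 200 ppm in microtiter wells. Plates were incubated at 24° C and growth inhibition measured photometrically 4-5 days after application.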

Q: `CCCCSCCOC(=O)c1cc2c(cc1Cl)COB2O` [Compound 198] was tested. Which inhibition at 200 ppm did it give?
A: ≥ 80%

Q: With `C=C(C)COC(=O)c1cc2c(cc1Cl)COB2O` [Compound 214] as the compound, how does the inhibition at 200 ppm read?
A: ≥ 80%

Q: With `COc1ccc(OCCOC(=O)c2cc3c(cc2Cl)COB3O)cc1` [Compound 218] as the compound, how does the inhibition at 200 ppm read?
A: ≥ 80%

Q: How did the inhibition at 200 ppm turn out when `O=C(OCc1cccc(F)c1)c1cc2c(cc1Cl)COB2O` [Compound 241] was run?
A: ≥ 80%

Q: Which inhibition at 200 ppm does the source give for `O=C(OC1CSC1)c1ccc2c(c1)B(O)OC2` [Compound 362] here?
A: ≥ 80%

Q: For `CCCCCCCOC(=O)c1cc2c(cc1F)COB2O` [Compound 378], which inhibition at 200 ppm is on record?
A: ≥ 80%

Q: `O=C(OCc1ccsc1)c1cc2c(cc1Cl)COB2O` [Compound 439] was tested. Which inhibition at 200 ppm did it give?
A: ≥ 80%

tested on: Gaeumannomyces graminis; assay: Gaeumannomyces graminis / liquid culture (take-all of cereals); assay type: cell-based; details: PDB potato dextrose broth, 24° C., 4-5 days after application, read-out: disease control (inhibition of growth determined photometrically)
Outline: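 Cryo-stored mycelial fragments in potato dextrose broth exposed to compound in DMSO at 200 ppm. Incubated at 24 °C; growth inhibition read photometrically 4–5 days after application.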

Q: With `C=C(C)COC(=O)c1cc2c(cc1Cl)COB2O` [Compound 214] as the compound, how does the inhibition at 200 ppm read?
A: ≥ 80%

Q: Which inhibition at 200 ppm does the source give for `COc1ccc(OCCOC(=O)c2cc3c(cc2Cl)COB3O)cc1` [Compound 218] here?
A: ≥ 80%

Q: For `O=C(OCc1cccc(F)c1)c1cc2c(cc1Cl)COB2O` [Compound 241], which inhibition at 200 ppm is on record?
A: ≥ 80%

Q: With `O=C(OC1CSC1)c1ccc2c(c1)B(O)OC2` [Compound 362] as the compound, how does the inhibition at 200 ppm read?
A: ≥ 80%

Q: `CCCCCCCOC(=O)c1cc2c(cc1F)COB2O` [Compound 378] was tested. Which inhibition at 200 ppm did it give?
A: ≥ 80%

Q: `O=C(OCc1ccsc1)c1cc2c(cc1Cl)COB2O` [Compound 439] was tested. Which inhibition at 200 ppm did it give?
A: ≥ 80%

tested on: Monographella nivalis (Microdochium nivale); assay: Monographella nivalis (Microdochium nivale) / liquid culture (foot rot cereals); assay type: cell-based; details: PDB potato dextrose broth, 24° C., 4-5 days after application, read-out: disease control (inhibition of growth determined photometrically)

Q: With `CCCCSCCOC(=O)c1cc2c(cc1Cl)COB2O` [Compound 198] as the compound, how does the inhibition at 200 ppm read?
A: ≥ 80%

Q: With `C=C(C)COC(=O)c1cc2c(cc1Cl)COB2O` [Compound 214] as the compound, how does the inhibition at 200 ppm read?
A: ≥ 80%

Q: With `COc1ccc(OCCOC(=O)c2cc3c(cc2Cl)COB3O)cc1` [Compound 218] as the compound, how does the inhibition at 200 ppm read?
A: ≥ 80%

Q: How did the inhibition at 200 ppm turn out when `O=C(OCc1cccc(F)c1)c1cc2c(cc1Cl)COB2O` [Compound 241] was run?
A: ≥ 80%

Q: How did the inhibition at 200 ppm turn out when `O=C(OC1CSC1)c1ccc2c(c1)B(O)OC2` [Compound 362] was run?
A: ≥ 80%

Q: `CCCCCCCOC(=O)c1cc2c(cc1F)COB2O` [Compound 378] was tested. Which inhibition at 200 ppm did it give?
A: ≥ 80%

Q: `O=C(OCc1ccsc1)c1cc2c(cc1Cl)COB2O` [Compound 439] was tested. Which inhibition at 200 ppm did it give?
A: ≥ 80%

tested on: Fusarium culmorum; assay: microbe, parasite or virus in culture; assay type: cell-based; details: read-out: disease control (inhibition of growth determined visually)

Q: With `O=C(OC1CSC1)c1ccc2c(c1)B(O)OC2` [Compound 362] as the compound, how does the inhibition at 200 ppm read?
A: ≥ 80%

tested on: Thanatephorus cucumeris (Rhizoctonia solani); assay: Thanatephorus cucumeris (Rhizoctonia solani) / liquid culture (foot rot, damping-off); assay type: cell-based; details: PDB potato dextrose broth, 24° C., 3-4 days after application, read-out: disease control (inhibition of growth determined photometrically)
Outline: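 Mycelial fragments from fresh liquid culture were suspended in potato dextrose broth and added to compound in DMSO at 200 ppm. After 3-4 days at 24 °C, growth inhibition was measured photometrically.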

Q: How did the inhibition at 200 ppm turn out when `CCCCSCCOC(=O)c1cc2c(cc1Cl)COB2O` [Compound 198] was run?
A: ≥ 80%

Q: How did the inhibition at 200 ppm turn out when `C=C(C)COC(=O)c1cc2c(cc1Cl)COB2O` [Compound 214] was run?
A: ≥ 80%

Q: Which inhibition at 200 ppm does the source give for `COc1ccc(OCCOC(=O)c2cc3c(cc2Cl)COB3O)cc1` [Compound 218] here?
A: ≥ 80%

Q: With `O=C(OCc1cccc(F)c1)c1cc2c(cc1Cl)COB2O` [Compound 241] as the compound, how does the inhibition at 200 ppm read?
A: ≥ 80%

Q: `O=C(OC1CSC1)c1ccc2c(c1)B(O)OC2` [Compound 362] was tested. Which inhibition at 200 ppm did it give?
A: ≥ 80%

Q: With `CCCCCCCOC(=O)c1cc2c(cc1F)COB2O` [Compound 378] as the compound, how does the inhibition at 200 ppm read?
A: ≥ 80%

Q: For `O=C(OCc1ccsc1)c1cc2c(cc1Cl)COB2O` [Compound 439], which inhibition at 200 ppm is on record?
A: ≥ 80%
